In US9340590B2 (priority 2011, dated 2016):
Positions of bridges follow the written chain, without caps; N, C: chain ends. Residues, ends and D or L forms follow the SMILES beside them.

Assays:
Experiment in all cases: cell-based
hNav1.7 = hNav1.7 (Homo sapiens, UniProt Q15858); format: cell-based; settings: IonWorks Quattro, use-dependent block, hNav1.7; read-out: IWQ Use Nav1.7
hNav1.5 = hNav1.5 (Homo sapiens, UniProt Q14524); settings: IonWorks Quattro, use-dependent block, hNav1.5; read-out: IWQ Use Nav1.5
Sequence of hNav1.5 (Q14524 whole entry, looked up): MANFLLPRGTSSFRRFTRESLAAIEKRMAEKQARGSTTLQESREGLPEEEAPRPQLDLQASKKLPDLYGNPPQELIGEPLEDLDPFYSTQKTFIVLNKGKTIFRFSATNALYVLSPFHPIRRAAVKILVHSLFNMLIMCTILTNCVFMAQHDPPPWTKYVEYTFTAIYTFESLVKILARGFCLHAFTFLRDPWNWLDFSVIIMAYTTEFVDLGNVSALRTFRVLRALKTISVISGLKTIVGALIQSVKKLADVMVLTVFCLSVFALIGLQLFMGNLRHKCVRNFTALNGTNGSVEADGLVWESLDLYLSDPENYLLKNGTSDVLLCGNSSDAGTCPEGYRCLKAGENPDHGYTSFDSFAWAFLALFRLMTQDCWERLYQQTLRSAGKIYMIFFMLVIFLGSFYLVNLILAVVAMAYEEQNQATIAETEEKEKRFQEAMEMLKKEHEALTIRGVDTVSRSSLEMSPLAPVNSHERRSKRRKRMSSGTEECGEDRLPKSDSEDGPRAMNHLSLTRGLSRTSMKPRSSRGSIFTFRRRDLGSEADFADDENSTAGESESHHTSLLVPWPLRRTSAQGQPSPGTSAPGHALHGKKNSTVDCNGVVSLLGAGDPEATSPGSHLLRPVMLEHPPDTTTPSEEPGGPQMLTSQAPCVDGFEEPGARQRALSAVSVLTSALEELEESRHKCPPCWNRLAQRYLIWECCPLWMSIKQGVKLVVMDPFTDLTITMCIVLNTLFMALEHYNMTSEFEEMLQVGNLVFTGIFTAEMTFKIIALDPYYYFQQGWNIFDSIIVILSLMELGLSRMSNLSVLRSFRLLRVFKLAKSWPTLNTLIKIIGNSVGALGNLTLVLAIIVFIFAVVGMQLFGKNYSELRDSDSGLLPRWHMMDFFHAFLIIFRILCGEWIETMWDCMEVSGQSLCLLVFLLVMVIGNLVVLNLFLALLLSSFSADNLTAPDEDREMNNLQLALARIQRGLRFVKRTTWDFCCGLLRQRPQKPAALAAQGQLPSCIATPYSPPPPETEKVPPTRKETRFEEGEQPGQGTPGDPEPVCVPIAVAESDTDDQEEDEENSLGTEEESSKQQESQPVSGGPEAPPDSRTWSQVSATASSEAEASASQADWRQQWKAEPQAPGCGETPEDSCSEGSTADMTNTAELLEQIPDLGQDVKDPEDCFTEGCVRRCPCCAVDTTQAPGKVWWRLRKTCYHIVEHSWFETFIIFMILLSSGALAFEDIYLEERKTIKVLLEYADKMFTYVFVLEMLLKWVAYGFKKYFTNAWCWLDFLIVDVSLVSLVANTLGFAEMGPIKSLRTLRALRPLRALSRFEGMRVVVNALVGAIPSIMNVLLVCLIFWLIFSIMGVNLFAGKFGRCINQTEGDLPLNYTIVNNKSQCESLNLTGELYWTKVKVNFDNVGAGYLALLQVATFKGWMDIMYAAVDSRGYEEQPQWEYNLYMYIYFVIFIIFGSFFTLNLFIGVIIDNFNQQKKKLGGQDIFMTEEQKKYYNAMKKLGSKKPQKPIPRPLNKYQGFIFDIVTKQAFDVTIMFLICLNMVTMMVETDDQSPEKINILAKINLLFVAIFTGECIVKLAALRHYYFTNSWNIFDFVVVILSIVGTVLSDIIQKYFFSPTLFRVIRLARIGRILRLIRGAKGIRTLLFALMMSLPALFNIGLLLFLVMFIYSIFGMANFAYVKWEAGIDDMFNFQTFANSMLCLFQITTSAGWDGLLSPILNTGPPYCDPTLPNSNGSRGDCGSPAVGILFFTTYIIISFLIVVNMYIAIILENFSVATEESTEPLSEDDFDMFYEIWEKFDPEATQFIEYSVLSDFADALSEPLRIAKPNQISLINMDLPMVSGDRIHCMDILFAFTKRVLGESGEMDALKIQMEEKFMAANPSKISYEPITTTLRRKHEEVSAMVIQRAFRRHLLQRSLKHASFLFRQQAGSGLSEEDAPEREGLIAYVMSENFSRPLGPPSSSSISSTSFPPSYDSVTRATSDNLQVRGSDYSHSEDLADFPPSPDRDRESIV

hNav1.3 = hNav1.3 (Homo sapiens, UniProt Q9NY46); settings: IonWorks Quattro, use-dependent block, hNav1.3; read-out: IWQ Use Nav1.3
Sequence of hNav1.3 (Q9NY46 whole entry, looked up): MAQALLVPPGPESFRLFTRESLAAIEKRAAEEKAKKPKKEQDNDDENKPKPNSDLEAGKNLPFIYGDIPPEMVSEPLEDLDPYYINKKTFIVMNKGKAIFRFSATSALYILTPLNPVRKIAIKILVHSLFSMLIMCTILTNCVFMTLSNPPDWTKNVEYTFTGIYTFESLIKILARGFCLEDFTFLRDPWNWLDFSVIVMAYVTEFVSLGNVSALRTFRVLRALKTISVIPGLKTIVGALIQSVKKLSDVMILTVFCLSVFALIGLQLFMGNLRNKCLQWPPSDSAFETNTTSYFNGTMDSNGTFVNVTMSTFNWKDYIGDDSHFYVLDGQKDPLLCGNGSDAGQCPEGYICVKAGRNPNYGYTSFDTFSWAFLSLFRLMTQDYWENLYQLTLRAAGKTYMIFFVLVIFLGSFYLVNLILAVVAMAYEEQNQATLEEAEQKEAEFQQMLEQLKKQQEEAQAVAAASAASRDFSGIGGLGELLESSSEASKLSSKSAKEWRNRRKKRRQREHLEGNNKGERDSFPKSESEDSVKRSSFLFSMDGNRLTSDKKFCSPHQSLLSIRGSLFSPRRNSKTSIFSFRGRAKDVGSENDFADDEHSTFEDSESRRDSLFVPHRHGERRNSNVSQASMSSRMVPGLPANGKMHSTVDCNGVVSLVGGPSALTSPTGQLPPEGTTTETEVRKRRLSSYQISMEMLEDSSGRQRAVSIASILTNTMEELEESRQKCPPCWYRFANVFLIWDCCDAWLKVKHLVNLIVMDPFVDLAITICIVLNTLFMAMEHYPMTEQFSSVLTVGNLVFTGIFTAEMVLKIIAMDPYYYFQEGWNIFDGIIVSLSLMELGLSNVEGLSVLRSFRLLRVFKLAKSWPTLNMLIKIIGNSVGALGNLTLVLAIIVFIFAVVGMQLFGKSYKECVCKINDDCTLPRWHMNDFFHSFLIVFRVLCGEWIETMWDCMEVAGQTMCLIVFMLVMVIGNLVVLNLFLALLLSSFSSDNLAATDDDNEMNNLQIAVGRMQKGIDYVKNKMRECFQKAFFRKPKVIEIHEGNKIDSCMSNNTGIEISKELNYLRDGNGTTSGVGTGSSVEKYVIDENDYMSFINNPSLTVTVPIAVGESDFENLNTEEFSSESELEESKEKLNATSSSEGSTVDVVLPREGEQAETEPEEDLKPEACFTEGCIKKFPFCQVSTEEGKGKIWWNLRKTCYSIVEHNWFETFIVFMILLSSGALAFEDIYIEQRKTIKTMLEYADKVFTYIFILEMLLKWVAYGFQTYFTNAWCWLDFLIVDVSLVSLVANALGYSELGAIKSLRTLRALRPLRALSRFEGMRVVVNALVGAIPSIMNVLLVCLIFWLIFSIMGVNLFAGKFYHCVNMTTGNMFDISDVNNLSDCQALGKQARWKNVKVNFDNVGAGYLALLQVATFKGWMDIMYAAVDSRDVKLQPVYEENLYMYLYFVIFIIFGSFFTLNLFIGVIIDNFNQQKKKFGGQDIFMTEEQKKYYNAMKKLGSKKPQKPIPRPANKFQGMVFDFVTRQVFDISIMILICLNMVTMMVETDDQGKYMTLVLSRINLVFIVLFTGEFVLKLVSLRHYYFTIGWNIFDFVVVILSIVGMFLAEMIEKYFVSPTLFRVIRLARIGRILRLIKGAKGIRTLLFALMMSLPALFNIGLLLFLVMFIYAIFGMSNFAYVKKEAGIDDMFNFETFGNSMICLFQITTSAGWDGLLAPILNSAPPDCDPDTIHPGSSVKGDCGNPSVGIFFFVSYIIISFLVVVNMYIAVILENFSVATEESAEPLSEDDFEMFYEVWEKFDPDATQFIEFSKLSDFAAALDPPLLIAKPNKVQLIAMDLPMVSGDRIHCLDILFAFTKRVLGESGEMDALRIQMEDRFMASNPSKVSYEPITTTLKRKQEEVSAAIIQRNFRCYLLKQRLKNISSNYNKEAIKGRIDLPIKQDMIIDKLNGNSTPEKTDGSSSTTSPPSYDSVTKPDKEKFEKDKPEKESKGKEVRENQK

Compound	IC50 (hNav1.7)	IC50 (hNav1.5)	IC50 (hNav1.3)
CC[C@H](C)[C@@H]1NC(=O)[C@@H]2CSSC[C@@H]3NC(=O)[C@H](C(C)C)NC(=O)[C@H](CC(C)C)NC(=O)[C@H](CC(N)=O)NC(=O)[C@@H]4CCCN4C(=O)[C@H](CCCNC(=N)N)NC(=O)[C@H](CSSC[C@H](NC(=O)[C@@H](N)CC(=O)O)C(=O)N[C@@H](CC(C)C)C(=O)NCC(=O)N[C@@H](C)C(=O)N[C@@H](CC(C)C)C(=O)N[C@@H](CCCNC(=N)N)C(=O)N[C@@H](CCCCN)C(=O)N2)NC(=O)[C@H](CSSC[C@@H](C(=O)N[C@@H](CCCCN)C(=O)N[C@@H](Cc2ccc(O)cc2)C(=O)N[C@H](C(=O)N[C@@H](Cc2ccccc2)C(=O)O)C(C)C)NC(=O)[C@H](Cc2c[nH]c4ccccc24)NC(=O)[C@H](CCC(=O)O)NC(=O)[C@H](Cc2c[nH]cn2)NC(=O)[C@H]([C@@H](C)O)NC(=O)[C@H](CCCNC(=N)N)NC(=O)[C@H](CO)NC3=O)NC(=O)[C@H](CCCCN)NC(=O)[C@H](CC(=O)O)NC(=O)[C@H](CC(N)=O)NC(=O)[C@H](CC(=O)O)NC(=O)[C@@H]2CCCN2C1=O [compound 855]	> 5 µM	> 5 µM	> 5 µM
CC[C@H](C)[C@@H]1NC(=O)[C@@H]2CSSC[C@@H]3NC(=O)[C@H](C(C)C)NC(=O)[C@H](CC(C)C)NC(=O)[C@H](CC(N)=O)NC(=O)[C@@H]4CCCN4C(=O)[C@H](CCCNC(=N)N)NC(=O)[C@H](CSSC[C@H](NC(=O)[C@@H](N)CC(=O)O)C(=O)N[C@@H](CC(C)C)C(=O)NCC(=O)N[C@@H](C)C(=O)N[C@@H](CC(C)C)C(=O)N[C@@H](CCCNC(=N)N)C(=O)N[C@@H](CCCCN)C(=O)N2)NC(=O)[C@H](CSSC[C@@H](C(=O)N[C@@H](CCCCN)C(=O)N[C@@H](Cc2ccc(O)cc2)C(=O)N[C@H](C(=O)N[C@@H](Cc2ccccc2)C(=O)O)C(C)C)NC(=O)[C@H](Cc2c[nH]c4ccccc24)NC(=O)[C@H](CC(C)C)NC(=O)[C@H](Cc2c[nH]cn2)NC(=O)[C@H]([C@@H](C)O)NC(=O)[C@H](CCCNC(=N)N)NC(=O)[C@H](CO)NC3=O)NC(=O)[C@H](CCCCN)NC(=O)[C@H](CC(=O)O)NC(=O)[C@H](CC(N)=O)NC(=O)[C@H](CC(=O)O)NC(=O)[C@@H]2CCCN2C1=O [compound 856] (H-DCLGALRKCIPDNDKCCRPNLVCSRTHLWCKYVF-OH; disulfide 2-17, 9-23, 16-30)	4.1 µM	> 5 µM	4.1 µM
CC[C@H](C)[C@@H]1NC(=O)[C@@H]2CSSC[C@@H]3NC(=O)[C@H](C(C)C)NC(=O)[C@H](CC(C)C)NC(=O)[C@H](CC(N)=O)NC(=O)[C@@H]4CCCN4C(=O)[C@H](CCCNC(=N)N)NC(=O)[C@H](CSSC[C@H](NC(=O)[C@@H](N)CC(=O)O)C(=O)N[C@@H](CC(C)C)C(=O)NCC(=O)N[C@@H](C)C(=O)N[C@@H](CC(C)C)C(=O)N[C@@H](CCCNC(=N)N)C(=O)N[C@@H](CCCCN)C(=O)N2)NC(=O)[C@H](CSSC[C@@H](C(=O)N[C@@H](CCCCN)C(=O)N[C@@H](Cc2ccc(O)cc2)C(=O)N[C@H](C(=O)N[C@@H](Cc2ccccc2)C(=O)O)C(C)C)NC(=O)[C@H](Cc2c[nH]c4ccccc24)NC(=O)[C@H](CCSC)NC(=O)[C@H](Cc2c[nH]cn2)NC(=O)[C@H]([C@@H](C)O)NC(=O)[C@H](CCCNC(=N)N)NC(=O)[C@H](CO)NC3=O)NC(=O)[C@H](CCCCN)NC(=O)[C@H](CC(=O)O)NC(=O)[C@H](CC(N)=O)NC(=O)[C@H](CC(=O)O)NC(=O)[C@@H]2CCCN2C1=O [compound 857] (H-DCLGALRKCIPDNDKCCRPNLVCSRTHMWCKYVF-OH; disulfide 2-17, 9-23, 16-30)	> 5 µM	> 5 µM	> 5 µM
CC[C@H](C)[C@@H]1NC(=O)[C@@H]2CSSC[C@@H]3NC(=O)[C@H](C(C)C)NC(=O)[C@H](CC(C)C)NC(=O)[C@H](CC(N)=O)NC(=O)[C@@H]4CCCN4C(=O)[C@H](CCCNC(=N)N)NC(=O)[C@H](CSSC[C@H](NC(=O)[C@@H](N)CC(=O)O)C(=O)N[C@@H](CC(C)C)C(=O)NCC(=O)N[C@@H](C)C(=O)N[C@@H](CC(C)C)C(=O)N[C@@H](CCCNC(=N)N)C(=O)N[C@@H](CCCCN)C(=O)N2)NC(=O)[C@H](CSSC[C@@H](C(=O)N[C@@H](CCCCN)C(=O)N[C@@H](Cc2ccc(O)cc2)C(=O)N[C@H](C(=O)N[C@@H](Cc2ccccc2)C(=O)O)C(C)C)NC(=O)[C@H](Cc2c[nH]c4ccccc24)NC(=O)[C@H](CCC(N)=O)NC(=O)[C@H](Cc2c[nH]cn2)NC(=O)[C@H]([C@@H](C)O)NC(=O)[C@H](CCCNC(=N)N)NC(=O)[C@H](CO)NC3=O)NC(=O)[C@H](CCCCN)NC(=O)[C@H](CC(=O)O)NC(=O)[C@H](CC(N)=O)NC(=O)[C@H](CC(=O)O)NC(=O)[C@@H]2CCCN2C1=O [compound 858] (H-DCLGALRKCIPDNDKCCRPNLVCSRTHQWCKYVF-OH; disulfide 2-17, 9-23, 16-30)	> 5 µM	> 5 µM	> 5 µM
CC[C@H](C)[C@@H]1NC(=O)[C@@H]2CSSC[C@@H]3NC(=O)[C@H](C(C)C)NC(=O)[C@H](CC(C)C)NC(=O)[C@H](CC(N)=O)NC(=O)[C@@H]4CCCN4C(=O)[C@H](CCCNC(=N)N)NC(=O)[C@H](CSSC[C@H](NC(=O)[C@@H](N)CC(=O)O)C(=O)N[C@@H](CC(C)C)C(=O)NCC(=O)N[C@@H](C)C(=O)N[C@@H](CC(C)C)C(=O)N[C@@H](CCCNC(=N)N)C(=O)N[C@@H](CCCCN)C(=O)N2)NC(=O)[C@H](CSSC[C@@H](C(=O)N[C@@H](CCCCN)C(=O)N[C@@H](Cc2ccc(O)cc2)C(=O)N[C@H](C(=O)N[C@@H](Cc2ccccc2)C(=O)O)C(C)C)NC(=O)[C@H](Cc2c[nH]c4ccccc24)NC(=O)[C@H](CO)NC(=O)[C@H](Cc2c[nH]cn2)NC(=O)[C@H]([C@@H](C)O)NC(=O)[C@H](CCCNC(=N)N)NC(=O)[C@H](CO)NC3=O)NC(=O)[C@H](CCCCN)NC(=O)[C@H](CC(=O)O)NC(=O)[C@H](CC(N)=O)NC(=O)[C@H](CC(=O)O)NC(=O)[C@@H]2CCCN2C1=O [compound 859] (H-DCLGALRKCIPDNDKCCRPNLVCSRTHSWCKYVF-OH; disulfide 2-17, 9-23, 16-30)	> 5 µM	> 5 µM	> 5 µM
CC[C@H](C)[C@@H]1NC(=O)[C@@H]2CSSC[C@@H]3NC(=O)[C@H](C(C)C)NC(=O)[C@H](CC(C)C)NC(=O)[C@H](CC(N)=O)NC(=O)[C@@H]4CCCN4C(=O)[C@H](CCCNC(=N)N)NC(=O)[C@H](CSSC[C@H](NC(=O)[C@@H](N)CC(=O)O)C(=O)N[C@@H](CC(C)C)C(=O)NCC(=O)N[C@@H](C)C(=O)N[C@@H](CC(C)C)C(=O)N[C@@H](CCCNC(=N)N)C(=O)N[C@@H](CCCCN)C(=O)N2)NC(=O)[C@H](CSSC[C@@H](C(=O)N[C@@H](CCCCN)C(=O)N[C@@H](Cc2ccc(O)cc2)C(=O)N[C@H](C(=O)N[C@@H](Cc2ccccc2)C(=O)O)C(C)C)NC(=O)[C@H](Cc2c[nH]c4ccccc24)NC(=O)[C@H](CCCNC(=N)N)NC(=O)[C@H](Cc2c[nH]cn2)NC(=O)[C@H]([C@@H](C)O)NC(=O)[C@H](CCCNC(=N)N)NC(=O)[C@H](CO)NC3=O)NC(=O)[C@H](CCCCN)NC(=O)[C@H](CC(=O)O)NC(=O)[C@H](C)NC(=O)[C@H](CC(=O)O)NC(=O)[C@@H]2CCCN2C1=O [compound 860] (H-DCLGALRKCIPDADKCCRPNLVCSRTHRWCKYVF-OH; disulfide 2-17, 9-23, 16-30)	> 5 µM	> 5 µM	4.5 µM
CC[C@H](C)[C@@H]1NC(=O)[C@@H]2CSSC[C@@H]3NC(=O)[C@H](C(C)C)NC(=O)[C@H](CC(C)C)NC(=O)[C@H](CC(N)=O)NC(=O)[C@@H]4CCCN4C(=O)[C@H](CCCNC(=N)N)NC(=O)[C@H](CSSC[C@H](NC(=O)[C@@H](N)CC(=O)O)C(=O)N[C@@H](CC(C)C)C(=O)NCC(=O)N[C@@H](C)C(=O)N[C@@H](CC(C)C)C(=O)N[C@@H](CCCNC(=N)N)C(=O)N[C@@H](CCCCN)C(=O)N2)NC(=O)[C@H](CSSC[C@@H](C(=O)N[C@@H](CCCCN)C(=O)N[C@@H](Cc2ccc(O)cc2)C(=O)N[C@H](C(=O)N[C@@H](Cc2ccccc2)C(=O)O)C(C)C)NC(=O)[C@H](Cc2c[nH]c4ccccc24)NC(=O)[C@H](CCCNC(=N)N)NC(=O)[C@H](Cc2c[nH]cn2)NC(=O)[C@H]([C@@H](C)O)NC(=O)[C@H](CCCNC(=N)N)NC(=O)[C@H](CO)NC3=O)NC(=O)[C@H](CCCCN)NC(=O)[C@H](CC(=O)O)NC(=O)[C@H](CC(=O)O)NC(=O)[C@H](CC(=O)O)NC(=O)[C@@H]2CCCN2C1=O [compound 861] (H-DCLGALRKCIPDDDKCCRPNLVCSRTHRWCKYVF-OH; disulfide 2-17, 9-23, 16-30)	> 5 µM	> 5 µM	> 5 µM
CC[C@H](C)[C@@H]1NC(=O)[C@@H]2CSSC[C@@H]3NC(=O)[C@H](C(C)C)NC(=O)[C@H](CC(C)C)NC(=O)[C@H](CC(N)=O)NC(=O)[C@@H]4CCCN4C(=O)[C@H](CCCNC(=N)N)NC(=O)[C@H](CSSC[C@H](NC(=O)[C@@H](N)CC(=O)O)C(=O)N[C@@H](CC(C)C)C(=O)NCC(=O)N[C@@H](C)C(=O)N[C@@H](CC(C)C)C(=O)N[C@@H](CCCNC(=N)N)C(=O)N[C@@H](CCCCN)C(=O)N2)NC(=O)[C@H](CSSC[C@@H](C(=O)N[C@@H](CCCCN)C(=O)N[C@@H](Cc2ccc(O)cc2)C(=O)N[C@H](C(=O)N[C@@H](Cc2ccccc2)C(=O)O)C(C)C)NC(=O)[C@H](Cc2c[nH]c4ccccc24)NC(=O)[C@H](CCCNC(=N)N)NC(=O)[C@H](Cc2c[nH]cn2)NC(=O)[C@H]([C@@H](C)O)NC(=O)[C@H](CCCNC(=N)N)NC(=O)[C@H](CO)NC3=O)NC(=O)[C@H](CCCCN)NC(=O)[C@H](CC(=O)O)NC(=O)[C@H](CCC(=O)O)NC(=O)[C@H](CC(=O)O)NC(=O)[C@@H]2CCCN2C1=O [compound 862] (H-DCLGALRKCIPDEDKCCRPNLVCSRTHRWCKYVF-OH; disulfide 2-17, 9-23, 16-30)	> 5 µM	> 5 µM	> 5 µM
